Key:
[1] = test system: OXTR (Homo sapiens oxytocin receptor mRNA, NM_000916); test: Full thickness tissue DNA microarray screening, OXTR gene expression; format: cell-based
Text: (§1) DNA microarrays were used to screen xanthohumol for changes in the expression of thousands of different genes. DNA microarrays are extremely powerful tools that allow users to analyze changes in gene expression by monitoring changes in the messenger ribonucleic acid (“mRNA”) of hundreds to thousands of genes in a single experiment. All cells function by using their genes to make protein products. This process starts by making an mRNA copy of the gene through a process called transcription. The mRNA copy is then translated into a protein that plays a functional role within the cell or the cell's environment. Since the process of gene expression is highly regulated, the amount of mRNA can be a good indicator of the level of activity for a specific gene. With the introduction of DNA microarrays, researchers can now rapidly obtain a much more global view of what is happening inside of a cell since the results of one or two array experiments can potentially generate data on changes in gene expression across the entire known human genome.
(§2) This would result in a ratio of 1. If a treatment increases the expression of a gene, then the median intensity of the feature would be greater in the scan from the red laser than the green, resulting in a ration that is greater than 1. […] These broader ranges are a more conservative judging criterion and account for possible sources of variation in fluorescence intensity that are not associated with the treatment.
(§3) In addition to the information on active ingredients and raw materials that the DNA microarray can provide, the arrays can be used to better characterize the mechanisms of action related to certain therapeutic categories. The array data also allows the verification that a gene of interest is expressed in a certain model before running an experiment. The following tables provide the data based on the ratio of means after 50 μL of a xanthohumol liquid formulation with a concentration of 5 mg/ml xanthohumol was used in the following experiment. RNA was isolated from the tissues for subsequent analysis via DNA microarrays.

[2] = test system: OXT (Homo sapiens oxytocin/neurophysin I prepropeptide mRNA, NM_000915); test: Full thickness tissue DNA microarray screening, OXT gene expression; format: cell-based
Text: as §1, §2, §3

[3] = 50 μL of xanthohumol liquid formulation, 5 mg/ml, full thickness tissue, >=1.3 up-regulated, <=0.7 down-regulated
[4] = 50 μL of xanthohumol liquid formulation, 5 mg/ml, green laser scan
[5] = 50 μL of xanthohumol liquid formulation, 5 mg/ml, red laser scan (treated)
[6] = ratio of means above 1.3 = up-regulated

For COc1cc(O)c(CC=C(C)C)c(O)c1C(=O)/C=C/c1ccc(O)cc1 [xanthohumol], the “Ratio of Means (OXTR)” value [1, 3] was 3.5, the “F532 Median (OXTR)” value [1, 4] was 43 and the “F635 Median (OXTR)” value [1, 5] was 53. For the same compound, the “up-regulation of OXTR” value ([1]; DNA microarray) was “greater than 50%”, the “regulation of OXTR gene (in words)” value [1, 6] was “significantly up-regulated” and the “Ratio of Means (OXT)” value [2, 3] was 2.488. For the same compound, the “F532 Median (OXT)” value [2, 4] was 78, the “F635 Median (OXT)” value [2, 5] was 171 and the “regulation of OXT gene (in words)” value [2, 6] was “significantly up-regulated”.

— patent publication US20190046469A1, “COMPOSITIONS AND METHODS FOR TREATING MOOD DISORDERS OR SKIN DISEASE OR DAMAGE” (priority 2012, published 2019)
